Several values for one entry are separate records, joined by “and”; a condition that tells them apart may be missing. Equal entries are not always repeated. Toxic doses and inconclusive results are not listed.

The test system of the test is BDF1 mice, P388 leukemia ip, median survival T/C. As to the kind of experiment: NCI In Vivo Anticancer Drug Screen. Data for tumor model P388 Leukemia (intraperitoneal) in B6D2F1 (BDF1) mice. The settings on record: endpoint: median survival time, higher = longer survival. The method, boiled down:
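Vehicle-dosed animals serve as the reference; survival of compound-dosed, tumour-implanted mice is divided by it.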

Where [1] appears, read: dose: 100.0 mg/kg/injection, schedule: Q04DX003 (ip), vehicle: saline with Tween-80.
Setting [2] is: dose: 200.0 mg/kg/injection, schedule: Q04DX003 (ip), vehicle: saline with Tween-80.
The mark [3] stands for this setting: dose: 50.0 mg/kg/injection, schedule: Q04DX003 (ip), vehicle: Klucel (hydroxypropylcellulose) (HPC).
[4] abbreviates: dose: 100.0 mg/kg/injection, schedule: Q01DX009 (ip), vehicle: Klucel (hydroxypropylcellulose) (HPC).
The mark [5] stands for this setting: dose: 100.0 mg/kg/injection, schedule: Q04DX003 (ip), vehicle: Klucel (hydroxypropylcellulose) (HPC).
The mark [6] stands for this setting: dose: 200.0 mg/kg/injection, schedule: Q01DX009 (ip), vehicle: Klucel (hydroxypropylcellulose) (HPC).
[7] abbreviates: dose: 200.0 mg/kg/injection, schedule: Q04DX003 (ip), vehicle: saline.
Setting [8] is: dose: 50.0 mg/kg/injection, schedule: Q01DX009 (ip), vehicle: saline with Tween-80.
Setting [9] is: dose: 100.0 mg/kg/injection, schedule: Q01DX009 (ip), vehicle: saline with Tween-80.
[10] abbreviates: dose: 200.0 mg/kg/injection, schedule: Q01DX009 (ip), vehicle: saline with Tween-80.
The mark [11] stands for this setting: dose: 25.0 mg/kg/injection, schedule: Q04DX003 (ip), vehicle: Klucel (hydroxypropylcellulose) (HPC).

Take `OC(CCCCl)CC(O)(C(F)(F)F)C(F)(F)F` (stereo not given): the T/C under setting [1] was 100 % of control and the T/C under setting [2] was 109 % of control.

As to `O=NN(CS(=O)(=O)O)c1ccccc1`, the T/C runs as follows: (dose: 50.0 mg/kg/injection, schedule: Q01DX001 (ip), vehicle: saline with Tween-80) 104 % of control; under setting [3], 104 % of control; (dose: 100.0 mg/kg/injection, schedule: Q01DX001 (ip), vehicle: saline with Tween-80) 104 % of control; under setting [4], 104 % of control; under setting [5], 113 % of control; (dose: 200.0 mg/kg/injection, schedule: Q01DX001 (ip), vehicle: saline with Tween-80) 122 % of control. The T/C by setting is: under setting [6], 108 % of control; (dose: 200.0 mg/kg/injection, schedule: Q04DX003 (ip), vehicle: Klucel (hydroxypropylcellulose) (HPC)) 109 % of control.

In the case of `CC(C)C(=O)c1ccc(-c2ccccc2)cc1`, the T/C was 105 % of control (dose: 12.5 mg/kg/injection, schedule: Q01DX009 (ip), vehicle: water); 113 % of control (dose: 25.0 mg/kg/injection, schedule: Q01DX009 (ip), vehicle: water); 97 % of control (dose: 25.0 mg/kg/injection, schedule: Q04DX003 (ip), vehicle: water); 102 % of control (dose: 50.0 mg/kg/injection, schedule: Q01DX009 (ip), vehicle: water); 101 % of control (dose: 50.0 mg/kg/injection, schedule: Q04DX003 (ip), vehicle: water); 111 % of control (dose: 100.0 mg/kg/injection, schedule: Q01DX009 (ip), vehicle: water). The T/C is, setting by setting: (dose: 100.0 mg/kg/injection, schedule: Q04DX003 (ip), vehicle: water) 97 % of control; (dose: 200.0 mg/kg/injection, schedule: Q01DX009 (ip), vehicle: water) 102 % of control; (dose: 200.0 mg/kg/injection, schedule: Q04DX003 (ip), vehicle: water) 92 % of control; (dose: 400.0 mg/kg/injection, schedule: Q01DX009 (ip), vehicle: water) 119 % of control; (dose: 400.0 mg/kg/injection, schedule: Q04DX003 (ip), vehicle: water) 89 % of control.

As for `COC(=O)C[C@](O)(CCC(C)C)C(=O)O[C@@H]1C(OC)=C[C@]23CCCN2CCc2cc4c(cc2[C@H]13)OCO4`, the T/C by setting is: (dose: 0.06 mg/kg/injection, schedule: Q01DX010 (ip), vehicle: saline) 118 % of control; (dose: 0.13 mg/kg/injection, schedule: Q01DX010 (ip), vehicle: saline) 109 % of control; (dose: 0.25 mg/kg/injection, schedule: Q01DX010 (ip), vehicle: saline) 118 % of control; (dose: 1.0 mg/kg/injection, schedule: Q01DX010 (ip), vehicle: saline) 155 % of control; (dose: 2.0 mg/kg/injection, schedule: Q01DX010 (ip), vehicle: saline) 180 % of control.

As to `[Br][Co][Br].[NH-]CC[NH-].[NH-]CC[NH-]`, under setting [7], the T/C is 109 % of control.

For `CCCCC(C)C(=O)CC(SCC)c1ccc(Cl)c(Cl)c1` (stereo not given), the T/C runs as follows: under setting [8], 99 % of control; under setting [9], 99 % of control; under setting [10], 96 % of control.

On to `CCCCCCCCCCCCNC(=O)CC(O)(CC(=O)O)C(=O)O` (stereo not given), for which the T/C runs as follows: under setting [11], 111 % of control; under setting [3], 88 % of control; under setting [5], 92 % of control.

Consider `CC(=O)/C=C/c1ccc2c(c1)OCO2`, for which the T/C (dose: 25.0 mg/kg/injection, schedule: Q04DX003 (ip), vehicle: saline) was 105 % of control; the T/C (dose: 50.0 mg/kg/injection, schedule: Q04DX003 (ip), vehicle: saline) is 103 % of control; the T/C (dose: 100.0 mg/kg/injection, schedule: Q04DX003 (ip), vehicle: saline) is 102 % of control and 114 % of control; the T/C under setting [7] was 100 % of control and 108 % of control and 122 % of control; the T/C (dose: 300.0 mg/kg/injection, schedule: Q04DX003 (ip), vehicle: saline) was 100 % of control and 103 % of control; the T/C (dose: 400.0 mg/kg/injection, schedule: Q04DX003 (ip), vehicle: saline) is 91 % of control and 94 % of control. The T/C (dose: 500.0 mg/kg/injection, schedule: Q04DX003 (ip), vehicle: saline) is 106 % of control and 109 % of control.

With `CS(=O)(=O)OCCn1c(=O)n(CCOS(C)(=O)=O)c(=O)n(CCOS(C)(=O)=O)c1=O`, the T/C runs as follows: (dose: 100.0 mg/kg/injection, schedule: Q01DX009 (ip), vehicle: saline sonified) 90 % of control; under setting [1], 90 % of control; (dose: 200.0 mg/kg/injection, schedule: Q01DX009 (ip), vehicle: saline sonified) 110 % of control; under setting [2], 100 % of control; (dose: 400.0 mg/kg/injection, schedule: Q01DX009 (ip), vehicle: saline sonified) 90 % of control; (dose: 400.0 mg/kg/injection, schedule: Q04DX003 (ip), vehicle: saline with Tween-80) 100 % of control.

For `CC(=O)O.[Pb]`, the T/C reads like this: (dose: 12.5 mg/kg/injection, schedule: Q01DX009 (ip), vehicle: Klucel (hydroxypropylcellulose) (HPC)) 109 % of control; (dose: 25.0 mg/kg/injection, schedule: Q01DX009 (ip), vehicle: Klucel (hydroxypropylcellulose) (HPC)) 109 % of control; (dose: 25.0 mg/kg/injection, schedule: Q01DX009 (ip), vehicle: saline with Tween-80) 90 % of control; under setting [8], 90 % of control.

Regarding `CC(C)(O)c1cnc(OCc2ccccc2)nc1OCc1ccccc1`, the T/C is 109 % of control (dose: 100.0 mg/kg/injection, schedule: Q01DX001 (ip), vehicle: Klucel (hydroxypropylcellulose) (HPC)); 95 % of control under setting [4]; 104 % of control (dose: 200.0 mg/kg/injection, schedule: Q01DX001 (ip), vehicle: Klucel (hydroxypropylcellulose) (HPC)); 91 % of control under setting [6]; 95 % of control (dose: 400.0 mg/kg/injection, schedule: Q01DX001 (ip), vehicle: Klucel (hydroxypropylcellulose) (HPC)); 86 % of control (dose: 400.0 mg/kg/injection, schedule: Q01DX009 (ip), vehicle: Klucel (hydroxypropylcellulose) (HPC)).

On to `CC(C)(C)NCC(CN(CC(CNC(C)(C)C)C(=O)c1ccccc1)C(C)(C)C)C(=O)c1ccccc1` (stereo not given), for which the T/C (dose: 12.5 mg/kg/injection, schedule: Q04DX003 (ip), vehicle: Klucel (hydroxypropylcellulose) (HPC)) was 104 % of control; the T/C under setting [11] was 104 % of control; the T/C under setting [3] is 112 % of control.

On to `CCCN(CCC)C(=S)[S-].CCCN(CCC)C(=S)[S-].[Zn]`, for which the T/C is, setting by setting: (dose: 37.5 mg/kg/injection, schedule: Q04DX003 (ip), vehicle: saline sonified) 100 % of control; (dose: 75.0 mg/kg/injection, schedule: Q04DX003 (ip), vehicle: saline sonified) 100 % of control; (dose: 150.0 mg/kg/injection, schedule: Q04DX003 (ip), vehicle: saline sonified) 112 % of control.

Consider `c1csc(CSc2ncnc3nc[nH]c23)c1`, for which the T/C reads like this: under setting [9], 100 % of control; under setting [10], 100 % of control.

For the compound `O=S1(=O)C(C(O)(c2ccccc2)c2ccccc2)CCCN1c1ccccc1` (stereo not given), the T/C by setting is: under setting [8], 100 % of control; under setting [9], 91 % of control; under setting [10], 97 % of control.

As to `Nc1ccc(O)c2ncccc12`, the T/C was 115 % of control (dose: 7.5 mg/kg/injection, schedule: Q01DX010 (ip), vehicle: saline) and 110 % of control (dose: 15.0 mg/kg/injection, schedule: Q01DX010 (ip), vehicle: saline).

Regarding `O=C(N/N=C/c1ccc(Cl)cc1Cl)c1ccccc1`, the T/C is 110 % of control (dose: 50.0 mg/kg/injection, schedule: Q01DX009 (ip), vehicle: Klucel (hydroxypropylcellulose) (HPC)); 110 % of control under setting [4]; 95 % of control under setting [6].

With `CCc1ccc(OS(=O)(=O)c2ccc([N+](=O)[O-])cc2)cc1`, the T/C was 104 % of control (dose: 75.0 mg/kg/injection, schedule: Q01DX001 (ip), vehicle: saline with Tween-80); 100 % of control (dose: 150.0 mg/kg/injection, schedule: Q01DX001 (ip), vehicle: saline with Tween-80); 100 % of control (dose: 300.0 mg/kg/injection, schedule: Q01DX001 (ip), vehicle: saline with Tween-80).

The values above are taken from PubChem BioAssay AID328 (DTP/NCI, 2004).
